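Five concentrations, 48 hours, 96-well plates. The concentration for 50% growth inhibition is given as GI50.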 Calls of active or inactive are those of the source. Rule as the data show it: active = GI50 up to about 1.1 µM and inactive = higher.
What was measured:
Experiment in all cases: DTP human tumour cell line panel, 48 h
CCRF-CEM = test system: CCRF-CEM
KM12 = test system: KM12
OVCAR-3 = test system: OVCAR-3
OVCAR-4 = test system: OVCAR-4
SK-OV-3 = test system: SK-OV-3
IGROV-1 = test system: IGROV-1
NCI-H522 = test system: NCI-H522
HCT-116 = test system: HCT-116
UACC-62 = test system: UACC-62
OVCAR-5 = test system: OVCAR-5
SW-620 = test system: SW-620
MDA-N = test system: MDA-N
UACC-257 = test system: UACC-257
K562 = test system: K562
HOP-62 = test system: HOP-62
HL-60 = test system: HL-60
SK-MEL-2 = test system: SK-MEL-2
SF-268 = test system: SF-268
SN12C = test system: SN12C

COc1ccc(N2C(N)=C(C#N)C(C#N)(C#N)C2c2cccc([N+](=O)[O-])c2)cc1 (stereo not drawn)
GI50 (CCRF-CEM): 3.05 µM (inactive) | GI50 (KM12): 18.9 µM (inactive) | GI50 (OVCAR-3): 15.4 µM (inactive) | GI50 (OVCAR-4): 17.7 µM (inactive) | GI50 (SK-OV-3): 20.2 µM (inactive) | GI50 (IGROV-1): 14.7 µM (inactive) | GI50 (NCI-H522): 7.14 µM (inactive) | GI50 (HCT-116): 9.91 µM (inactive) | GI50 (UACC-62): 15.9 µM (inactive) | GI50 (OVCAR-5): 17.5 µM (inactive) | GI50 (SW-620): 11.2 µM (inactive) | GI50 (MDA-N): 17.3 µM (inactive) | GI50 (UACC-257): 13.7 µM (inactive) | GI50 (K562): 2.92 µM (inactive) | GI50 (HOP-62): 16.3 µM (inactive) | GI50 (HL-60): 3.03 µM (inactive) | GI50 (SK-MEL-2): 18.1 µM (inactive) | GI50 (SF-268): 20.6 µM (inactive) | GI50 (SN12C): 16.1 µM (inactive)

Fc1cc(F)c(F)c(S)c1F
GI50 (CCRF-CEM): 29.5 µM (inactive) | GI50 (KM12): > 100 µM (inactive) | GI50 (OVCAR-3): > 100 µM (inactive) | GI50 (OVCAR-4): 62.4 µM (inactive) | GI50 (SK-OV-3): 65.6 µM (inactive) | GI50 (IGROV-1): > 100 µM (inactive) | GI50 (NCI-H522): 15.5 µM (inactive) | GI50 (HCT-116): > 100 µM (inactive) | GI50 (UACC-62): > 100 µM (inactive) | GI50 (OVCAR-5): > 100 µM (inactive) | GI50 (SW-620): 59.7 µM (inactive) | GI50 (MDA-N): > 100 µM (inactive) | GI50 (UACC-257): > 100 µM (inactive) | GI50 (K562): 57.4 µM (inactive) | GI50 (HOP-62): > 100 µM (inactive) | GI50 (HL-60): 30.1 µM (inactive) | GI50 (SK-MEL-2): > 100 µM (inactive) | GI50 (SF-268): 77.3 µM (inactive) | GI50 (SN12C): 20.4 µM (inactive)

Cc1[nH]c2ccccc2c1/C=N/NC(=O)c1cccc(I)c1
GI50 (CCRF-CEM): 26 µM (inactive) | GI50 (KM12): 16.3 µM (inactive) | GI50 (OVCAR-3): 20.7 µM (inactive) | GI50 (OVCAR-4): 16.1 µM (inactive) | GI50 (SK-OV-3): 32.2 µM (inactive) | GI50 (IGROV-1): 17.7 µM (inactive) | GI50 (NCI-H522): 24.3 µM (inactive) | GI50 (HCT-116): 22.9 µM (inactive) | GI50 (UACC-62): 17.8 µM (inactive) | GI50 (OVCAR-5): 25.1 µM (inactive) | GI50 (SW-620): 29 µM (inactive) | GI50 (MDA-N): 22.1 µM (inactive) | GI50 (UACC-257): 23.7 µM (inactive) | GI50 (K562): 24.5 µM (inactive) | GI50 (HOP-62): 17.6 µM (inactive) | GI50 (HL-60): 26.9 µM (inactive) | GI50 (SK-MEL-2): 19.2 µM (inactive) | GI50 (SF-268): 40.6 µM (inactive) | GI50 (SN12C): 30.2 µM (inactive)

CC(=O)c1ccc2c3c1[C@H]1O[C@H]1c1cccc(c1-3)[C@@H]1O[C@H]21
GI50 (CCRF-CEM): 1.61 µM (inactive) | GI50 (KM12): 1.87 µM (inactive) | GI50 (OVCAR-3): 3.27 µM (inactive) | GI50 (OVCAR-4): 1.67 µM (inactive) | GI50 (SK-OV-3): 5.32 µM (inactive) | GI50 (IGROV-1): 0.112 µM (active) | GI50 (NCI-H522): 0.286 µM (active) | GI50 (HCT-116): 1.74 µM (inactive) | GI50 (UACC-62): 2.01 µM (inactive) | GI50 (OVCAR-5): 1.95 µM (inactive) | GI50 (SW-620): 0.855 µM (active) | GI50 (MDA-N): 2.32 µM (inactive) | GI50 (UACC-257): 2.04 µM (inactive) | GI50 (K562): 0.444 µM (active) | GI50 (HOP-62): 2.39 µM (inactive) | GI50 (HL-60): 2.58 µM (inactive) | GI50 (SK-MEL-2): 2.74 µM (inactive) | GI50 (SF-268): 1.51 µM (inactive) | GI50 (SN12C): 1.85 µM (inactive)

Cc1cn(C2C=CC(COP(=O)(OCc3ccc([N+](=O)[O-])o3)N(C)CCCCCl)O2)c(=O)[nH]c1=O (stereo not drawn)
GI50 (CCRF-CEM): 5.43 µM (inactive) | GI50 (KM12): 6.68 µM (inactive) | GI50 (OVCAR-3): 1.75 µM (inactive) | GI50 (OVCAR-4): 4.31 µM (inactive) | GI50 (SK-OV-3): 11.7 µM (inactive) | GI50 (IGROV-1): 3.03 µM (inactive) | GI50 (NCI-H522): 1.85 µM (inactive) | GI50 (HCT-116): 8.65 µM (inactive) | GI50 (UACC-62): 4.56 µM (inactive) | GI50 (OVCAR-5): 15.6 µM (inactive) | GI50 (SW-620): 10.1 µM (inactive) | GI50 (MDA-N): 2.63 µM (inactive) | GI50 (UACC-257): 5.55 µM (inactive) | GI50 (K562): 2.08 µM (inactive) | GI50 (HOP-62): 16 µM (inactive) | GI50 (HL-60): 9.31 µM (inactive) | GI50 (SK-MEL-2): 3.48 µM (inactive) | GI50 (SF-268): 7.57 µM (inactive) | GI50 (SN12C): 10.8 µM (inactive)

Cc1cc2c(O)c(c1)CN(Cc1ccccc1)Cc1cc(C)cc(c1O)CN(Cc1ccccc1)Cc1cc(C)cc(c1O)CN(Cc1ccccc1)C2
GI50 (CCRF-CEM): > 100 µM (inactive) | GI50 (KM12): > 100 µM (inactive) | GI50 (OVCAR-3): > 100 µM (inactive) | GI50 (OVCAR-4): > 100 µM (inactive) | GI50 (SK-OV-3): > 100 µM (inactive) | GI50 (IGROV-1): > 100 µM (inactive) | GI50 (NCI-H522): > 100 µM (inactive) | GI50 (HCT-116): > 100 µM (inactive) | GI50 (UACC-62): > 100 µM (inactive) | GI50 (OVCAR-5): > 100 µM (inactive) | GI50 (SW-620): > 100 µM (inactive) | GI50 (MDA-N): > 100 µM (inactive) | GI50 (UACC-257): > 100 µM (inactive) | GI50 (K562): > 100 µM (inactive) | GI50 (HOP-62): 46.2 µM (inactive) | GI50 (HL-60): > 100 µM (inactive) | GI50 (SK-MEL-2): 32.3 µM (inactive) | GI50 (SF-268): > 100 µM (inactive) | GI50 (SN12C): > 100 µM (inactive)

COC(=O)C1Cc2c([nH]c3ccccc23)C(c2cccc(O)c2)N1 (stereo not drawn)
GI50 (CCRF-CEM): 19 µM (inactive) | GI50 (KM12): 32.1 µM (inactive) | GI50 (OVCAR-3): 42 µM (inactive) | GI50 (OVCAR-4): 41.2 µM (inactive) | GI50 (SK-OV-3): 56.4 µM (inactive) | GI50 (IGROV-1): 37.8 µM (inactive) | GI50 (NCI-H522): 33.6 µM (inactive) | GI50 (HCT-116): 35.7 µM (inactive) | GI50 (UACC-62): 44.2 µM (inactive) | GI50 (OVCAR-5): 28.8 µM (inactive) | GI50 (SW-620): 24.3 µM (inactive) | GI50 (MDA-N): 19.5 µM (inactive) | GI50 (UACC-257): 90.8 µM (inactive) | GI50 (K562): 33.1 µM (inactive) | GI50 (HOP-62): 75.9 µM (inactive) | GI50 (HL-60): 22.2 µM (inactive) | GI50 (SK-MEL-2): 27 µM (inactive) | GI50 (SF-268): 40.8 µM (inactive) | GI50 (SN12C): 40.9 µM (inactive)
